Reference: patent publication US20110081315A1, “NOVEL MACROCYCLIC INHIBITORS OF HEPATITIS C VIRUS REPLICATION” (INTERMUNE, INC., priority 2009, published 2011)

How the values were obtained:
[1] = tested on: hepatitis C replicon; assay: hepatitis C replicon EC50 assay; format: cell-based; settings: Hepatitis C virus; hepatitis C replicon; read-out: EC50
From the text: (§1) NS3-NS4 inhibition activity can be determined using known assay methods. For example, NS3/NS4 complexes may be formed and inhibitory concentrations of test compounds determined as described in U.S. Patent Application Publication Number 2007/0054842 paragraph numbers 1497-1509, which is incorporated herein by reference in its entirety. Similarly, hepatitis C replicon EC50 may be determined using known assay methods such as described in U.S. Patent Application Publication Number 2007/0054842 paragraph numbers 1510-1515, which is incorporated herein by reference in its entirety. Assays may be conducted at ambient temperature (23° C.) in assay buffer containing 50 mM Tris-HCl, pH 7.5, 15% glycerol, 0.6 mM Lauryldimethylamine Oxide (LDAO), 25 μM NS4A peptide, and 10 mM Dithiothreitol (DTT).

[2] = biological target: NS3/NS4 complexes (Hepatitis C virus genotype 1a, UniProt P27958); assay: NS3/NS4 inhibition assay (IC50); format: biochemical; settings: NS3/NS4 activity; 23° C., 25 μM NS4A peptide
Sequence of NS3/NS4 complexes (P27958 1027-1657, one chain of several): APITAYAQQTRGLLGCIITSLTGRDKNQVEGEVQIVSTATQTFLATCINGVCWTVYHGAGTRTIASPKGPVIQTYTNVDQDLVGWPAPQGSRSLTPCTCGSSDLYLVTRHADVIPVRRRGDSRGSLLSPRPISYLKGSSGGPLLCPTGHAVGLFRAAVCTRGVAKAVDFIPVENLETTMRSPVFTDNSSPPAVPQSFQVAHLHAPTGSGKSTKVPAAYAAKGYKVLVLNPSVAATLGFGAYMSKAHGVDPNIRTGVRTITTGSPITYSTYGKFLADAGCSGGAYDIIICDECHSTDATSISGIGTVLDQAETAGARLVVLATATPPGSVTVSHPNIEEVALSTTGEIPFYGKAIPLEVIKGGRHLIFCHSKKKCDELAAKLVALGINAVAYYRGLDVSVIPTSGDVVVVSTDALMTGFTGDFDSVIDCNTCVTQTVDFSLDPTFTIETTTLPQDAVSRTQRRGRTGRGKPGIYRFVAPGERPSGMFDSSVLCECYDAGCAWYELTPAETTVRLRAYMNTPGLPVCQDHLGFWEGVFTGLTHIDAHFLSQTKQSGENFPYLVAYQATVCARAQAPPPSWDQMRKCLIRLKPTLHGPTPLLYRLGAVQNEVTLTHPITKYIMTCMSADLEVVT
From the text: as §1

CC(C)n1c(O[C@@H]2C[C@H]3C(=O)N[C@]4(C(=O)NS(=O)(=O)C5(C)CC5)C[C@H]4/C=C\CCCCC[C@H](Nc4cccc(C(C)(C)C)c4)C(=O)N3C2)nc2ccccc21 [Compound 200] gave an EC50 [1] of less than 10 nM and an IC50 [2] of less than 10 nM.
CC(C)c1cccc2c1nc(O[C@@H]1C[C@H]3C(=O)N[C@]4(C(=O)NS(=O)(=O)C5(C)CC5)C[C@H]4/C=C\CCCCC[C@H](Nc4ccccc4)C(=O)N3C1)n2C(C)C [Compound 201] showed an EC50 [1] of 10 to 100 nM and an IC50 [2] of less than 10 nM.
Work on CC(C)c1ccc2c(c1)nc(O[C@@H]1C[C@H]3C(=O)N[C@]4(C(=O)NS(=O)(=O)C5(C)CC5)C[C@H]4/C=C\CCCCC[C@H](Nc4ccccc4)C(=O)N3C1)n2C(C)C [Compound 202] yielded an EC50 [1] greater than 100 nM and an IC50 [2] of less than 10 nM.
In the case of CC(C)n1c(O[C@@H]2C[C@H]3C(=O)N[C@]4(C(=O)NS(=O)(=O)C5(C)CC5)C[C@H]4/C=C\CCCCC[C@H](Nc4ccccc4)C(=O)N3C2)nc2c(-c3ccccc3)cccc21 [Compound 203], the EC50 [1] is reported as 10 to 100 nM and the IC50 [2] is reported as less than 10 nM.
In the case of CC(C)n1c(O[C@@H]2C[C@H]3C(=O)N[C@]4(C(=O)NS(=O)(=O)C5(C)CC5)C[C@H]4/C=C\CCCCC[C@H](Nc4ccccc4)C(=O)N3C2)nc2c(C(F)(F)F)cccc21 [Compound 204], the EC50 [1] is reported as 10 to 100 nM and the IC50 [2] is reported as less than 10 nM.
CN(C)S(=O)(=O)NC(=O)[C@@]12C[C@H]1/C=C\CCCCC[C@H](NC(=O)OC(C)(C)C)C(=O)N1C[C@H](Oc3nc4ccccc4n3C3CC3)C[C@H]1C(=O)N2 [Compound 205] was tested, and the EC50 [1] was less than 10 nM and the IC50 [2] was less than 10 nM.
In the case of CN(C)S(=O)(=O)NC(=O)[C@@]12C[C@H]1/C=C\CCCCC[C@H](NC(=O)OC(C)(C)C)C(=O)N1C[C@H](Oc3nc4ccccc4n3C(C)(C)C)C[C@H]1C(=O)N2 [Compound 206], the EC50 [1] is reported as less than 10 nM and the IC50 [2] is reported as less than 10 nM.
For CN(C)S(=O)(=O)NC(=O)[C@@]12C[C@H]1/C=C\CCCCC[C@H](NC(=O)OC(C)(C)C)C(=O)N1C[C@H](Oc3nc4ccccc4n3-c3ccccc3)C[C@H]1C(=O)N2 [Compound 207], the EC50 [1] was less than 10 nM and the IC50 [2] was less than 10 nM.
With CC(C)n1c(O[C@@H]2C[C@H]3C(=O)N[C@]4(C(=O)O)C[C@H]4/C=C\CCCCC[C@H](NC(=O)OC(C)(C)C)C(=O)N3C2)nc2ccccc21 [Compound 208] the EC50 [1] was greater than 100 nM and the IC50 [2] was less than 10 nM.
In the case of CC(C)n1c(O[C@@H]2C[C@H]3C(=O)N[C@]4(C(=O)NS(=O)(=O)N(C)C)C[C@H]4/C=C\CCCCC[C@H](NC(=O)OC(C)(C)C)C(=O)N3C2)nc2cnccc21 [Compound 209], the EC50 [1] is reported as 10 to 100 nM and the IC50 [2] is reported as less than 10 nM.
CC(C)n1c(O[C@@H]2C[C@H]3C(=O)N[C@]4(C(=O)NS(=O)(=O)N(C)C)C[C@H]4/C=C\CCCCC[C@H](NC(=O)OC(C)(C)C)C(=O)N3C2)nc2c(-c3ccccc3)cccc21 [Compound 210] showed an EC50 [1] of less than 10 nM and an IC50 [2] of less than 10 nM.
Compound CC(C)n1c(O[C@@H]2C[C@H]3C(=O)N[C@]4(C(=O)NS(=O)(=O)C5CC5)C[C@H]4/C=C\CCCCC[C@H](NC(=O)OC(C)(C)C)C(=O)N3C2)nc2c(-c3nccs3)cccc21 [Compound 211] has an EC50 [1] of less than 10 nM and an IC50 [2] of less than 10 nM.
Work on CC(C)n1c(O[C@@H]2C[C@H]3C(=O)N[C@]4(C(=O)NS(=O)(=O)C5CC5)C[C@H]4/C=C\CCCCC[C@H](NC(=O)OC(C)(C)C)C(=O)N3C2)nc2c(-c3ncco3)cccc21 [Compound 212] yielded an EC50 [1] of less than 10 nM and an IC50 [2] of less than 10 nM.
Compound CC(C)n1c(O[C@@H]2C[C@H]3C(=O)N[C@]4(C(=O)NS(=O)(=O)C5CC5)C[C@H]4/C=C\CCCCC[C@H](NC(=O)OC(C)(C)C)C(=O)N3C2)nc2c(-c3cccs3)cccc21 [Compound 213] has an EC50 [1] of less than 10 nM and an IC50 [2] of less than 10 nM.
In the case of CC(C)n1c(O[C@@H]2C[C@H]3C(=O)N[C@]4(C(=O)NS(=O)(=O)C5CC5)C[C@H]4/C=C\CCCCC[C@H](NC(=O)OC(C)(C)C)C(=O)N3C2)nc2c(-c3nc4ccccc4s3)cccc21 [Compound 214], the EC50 [1] is reported as less than 10 nM and the IC50 [2] is reported as less than 10 nM.
Cc1csc(-c2cccc3c2nc(O[C@@H]2C[C@H]4C(=O)N[C@]5(C(=O)NS(=O)(=O)C6CC6)C[C@H]5/C=C\CCCCC[C@H](NC(=O)OC(C)(C)C)C(=O)N4C2)n3C(C)C)n1 [Compound 215] showed an EC50 [1] of less than 10 nM and an IC50 [2] of less than 10 nM.
Cc1cnc(-c2cccc3c2nc(O[C@@H]2C[C@H]4C(=O)N[C@]5(C(=O)NS(=O)(=O)C6CC6)C[C@H]5/C=C\CCCCC[C@H](NC(=O)OC(C)(C)C)C(=O)N4C2)n3C(C)C)s1 [Compound 216] gave an EC50 [1] of less than 10 nM and an IC50 [2] of less than 10 nM.
For Cc1nc(-c2cccc3c2nc(O[C@@H]2C[C@H]4C(=O)N[C@]5(C(=O)NS(=O)(=O)C6CC6)C[C@H]5/C=C\CCCCC[C@H](NC(=O)OC(C)(C)C)C(=O)N4C2)n3C(C)C)sc1C [Compound 217], the EC50 [1] was less than 10 nM and the IC50 [2] was less than 10 nM.
Work on CC(C)c1csc(-c2cccc3c2nc(O[C@@H]2C[C@H]4C(=O)N[C@]5(C(=O)NS(=O)(=O)C6CC6)C[C@H]5/C=C\CCCCC[C@H](NC(=O)OC(C)(C)C)C(=O)N4C2)n3C(C)C)n1 [Compound 218] yielded an EC50 [1] of less than 10 nM and an IC50 [2] of less than 10 nM.
Compound Cc1sc(-c2cccc3c2nc(O[C@@H]2C[C@H]4C(=O)N[C@]5(C(=O)NS(=O)(=O)C6CC6)C[C@H]5/C=C\CCCCC[C@H](NC(=O)OC(C)(C)C)C(=O)N4C2)n3C(C)C)nc1C(C)C [Compound 219] has an EC50 [1] of less than 10 nM and an IC50 [2] of less than 10 nM.
CC(C)n1c(O[C@@H]2C[C@H]3C(=O)N[C@]4(C(=O)NS(=O)(=O)C5CC5)C[C@H]4/C=C\CCCCC[C@H](NC(=O)OC(C)(C)C)C(=O)N3C2)nc2c(-c3nc(C(C)(C)C)cs3)cccc21 [Compound 220] was tested, and the EC50 [1] was less than 10 nM and the IC50 [2] was less than 10 nM.
In the case of CC(C)n1c(O[C@@H]2C[C@H]3C(=O)N[C@]4(C(=O)NS(=O)(=O)C5CC5)C[C@H]4/C=C\CCCCC[C@H](NC(=O)OC(C)(C)C)C(=O)N3C2)nc2c(-c3nc(-c4ccccc4)cs3)cccc21 [Compound 221], the EC50 [1] is reported as less than 10 nM and the IC50 [2] is reported as less than 10 nM.
Compound CC(C)n1c(O[C@@H]2C[C@H]3C(=O)N[C@]4(C(=O)NS(=O)(=O)C5CC5)C[C@H]4/C=C\CCCCC[C@H](NC(=O)OC(C)(C)C)C(=O)N3C2)nc2c(-c3cc(C(F)(F)F)nn3C)cccc21 [Compound 222] has an EC50 [1] of less than 10 nM and an IC50 [2] of less than 10 nM.
In the case of CC(C)n1c(O[C@@H]2C[C@H]3C(=O)N[C@]4(C(=O)NS(=O)(=O)C5CC5)C[C@H]4/C=C\CCCCC[C@H](NC(=O)OC(C)(C)C)C(=O)N3C2)nc2c(-c3cncs3)cccc21 [Compound 223], the EC50 [1] is reported as less than 10 nM and the IC50 [2] is reported as less than 10 nM.
CC(C)n1c(O[C@@H]2C[C@H]3C(=O)N[C@]4(C(=O)NS(=O)(=O)C5CC5)C[C@H]4/C=C\CCCCC[C@H](NC(=O)OC(C)(C)C)C(=O)N3C2)nc2c(Br)cccc21 [Compound 224] gave an EC50 [1] of less than 10 nM and an IC50 [2] of less than 10 nM.
C=Cc1cccc2c1nc(O[C@@H]1C[C@H]3C(=O)N[C@]4(C(=O)NS(=O)(=O)C5CC5)C[C@H]4/C=C\CCCCC[C@H](NC(=O)OC(C)(C)C)C(=O)N3C1)n2C(C)C [Compound 225] was tested, and the EC50 [1] was less than 10 nM and the IC50 [2] was less than 10 nM.
Work on CC(C)n1c(O[C@@H]2C[C@H]3C(=O)N[C@]4(C(=O)NS(=O)(=O)N(C)C)C[C@H]4/C=C\CCCCC[C@H](NC(=O)OC(C)(C)C)C(=O)N3C2)nc2c(-c3nccs3)cccc21 [Compound 226] yielded an EC50 [1] of less than 10 nM and an IC50 [2] of less than 10 nM.
Compound CC(C)n1c(O[C@@H]2C[C@H]3C(=O)N[C@]4(C(=O)NS(=O)(=O)N(C)C)C[C@H]4/C=C\CCCCC[C@H](NC(=O)OC(C)(C)C)C(=O)N3C2)nc2c(-c3ncco3)cccc21 [Compound 227] has an EC50 [1] of less than 10 nM and an IC50 [2] of less than 10 nM.
Compound Cc1csc(-c2cccc3c2nc(O[C@@H]2C[C@H]4C(=O)N[C@]5(C(=O)NS(=O)(=O)N(C)C)C[C@H]5/C=C\CCCCC[C@H](NC(=O)OC(C)(C)C)C(=O)N4C2)n3C(C)C)n1 [Compound 228] has an EC50 [1] of less than 10 nM and an IC50 [2] of less than 10 nM.
In the case of Cc1cnc(-c2cccc3c2nc(O[C@@H]2C[C@H]4C(=O)N[C@]5(C(=O)NS(=O)(=O)N(C)C)C[C@H]5/C=C\CCCCC[C@H](NC(=O)OC(C)(C)C)C(=O)N4C2)n3C(C)C)s1 [Compound 229], the EC50 [1] is reported as less than 10 nM and the IC50 [2] is reported as less than 10 nM.
In the case of Cc1sc(-c2cccc3c2nc(O[C@@H]2C[C@H]4C(=O)N[C@]5(C(=O)NS(=O)(=O)N(C)C)C[C@H]5/C=C\CCCCC[C@H](NC(=O)OC(C)(C)C)C(=O)N4C2)n3C(C)C)nc1C(C)C [Compound 231], the EC50 [1] is reported as 10 to 100 nM and the IC50 [2] is reported as less than 10 nM.
CC(C)n1c(O[C@@H]2C[C@H]3C(=O)N[C@]4(C(=O)NS(=O)(=O)N(C)C)C[C@H]4/C=C\CCCCC[C@H](NC(=O)OC(C)(C)C)C(=O)N3C2)nc2c(-c3nc(C(C)(C)C)cs3)cccc21 [Compound 232] gave an EC50 [1] of 10 to 100 nM and an IC50 [2] of less than 10 nM.
Work on CC(C)n1c(O[C@@H]2C[C@H]3C(=O)N[C@]4(C(=O)NS(=O)(=O)N(C)C)C[C@H]4/C=C\CCCCC[C@H](NC(=O)OC(C)(C)C)C(=O)N3C2)nc2c(-c3nc(-c4ccccc4)cs3)cccc21 [Compound 233] yielded an EC50 [1] of 10 to 100 nM and an IC50 [2] of less than 10 nM.
Compound CC(C)n1c(O[C@@H]2C[C@H]3C(=O)N[C@]4(C(=O)NS(=O)(=O)C5(C)CC5)C[C@H]4/C=C\CCCCC[C@H](NC(=O)OC(C)(C)C)C(=O)N3C2)nc2c(-c3nccs3)cccc21 [Compound 234] has an EC50 [1] of less than 10 nM and an IC50 [2] of less than 10 nM.
CC(C)n1c(O[C@@H]2C[C@H]3C(=O)N[C@]4(C(=O)NS(=O)(=O)C5(C)CC5)C[C@H]4/C=C\CCCCC[C@H](NC(=O)OC(C)(C)C)C(=O)N3C2)nc2c(-c3ncco3)cccc21 [Compound 235] showed an EC50 [1] of less than 10 nM and an IC50 [2] of less than 10 nM.
Work on Cc1sc(-c2cccc3c2nc(O[C@@H]2C[C@H]4C(=O)N[C@]5(C(=O)NS(=O)(=O)C6(C)CC6)C[C@H]5/C=C\CCCCC[C@H](NC(=O)OC(C)(C)C)C(=O)N4C2)n3C(C)C)nc1C(C)C [Compound 237] yielded an EC50 [1] of less than 10 nM and an IC50 [2] of less than 10 nM.
